Measured values reported in patent US20080318943A1, “Compounds and Uses Thereof - 848” (ASTRAZENECA AB, priority 2007, published 2008).

Key:
[1] = molecular target: T1, GABAA2 receptors (α2, β3, γ2 receptor subunits transfected into Sf9 cells) (Homo sapiens, UniProt P18507+P47869); test: GABAA2 Binding Method ([3H]-Flunitrazepam displacement); details: [3H]-Flunitrazepam ~2 nM, α2β3γ2 Sf9 membranes, 1 hr at 4° C.
T1 construct: host or cells: Sf9 cells (membranes)
In short: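 Membranes from Sf9 cells expressing α2β3γ2 GABAA receptors incubated with ~2 nM (final) [3H]-flunitrazepam and test compound 1 h at 4 °C, then filtered on GF/B plates with cold-buffer washes. Flumazenil-defined controls; percent of control, IC50 and Ki calculated.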

GABAA receptor α1β2γ2 = molecular target: T2, GABAA receptor α1β2γ2 (Homo sapiens, UniProt P14867+P18507); test: Two-electrode voltage-clamp potentiation of GABA EC10 current in Xenopus oocytes, GABAA1; type: cell-based; details: percentage potentiation of GABA EC10 current divided by that of diazepam
T2 construct: expressed in transfected cells; host or cells: Xenopus laevis oocytes injected with cRNA
T2 sequence (P14867 28-456): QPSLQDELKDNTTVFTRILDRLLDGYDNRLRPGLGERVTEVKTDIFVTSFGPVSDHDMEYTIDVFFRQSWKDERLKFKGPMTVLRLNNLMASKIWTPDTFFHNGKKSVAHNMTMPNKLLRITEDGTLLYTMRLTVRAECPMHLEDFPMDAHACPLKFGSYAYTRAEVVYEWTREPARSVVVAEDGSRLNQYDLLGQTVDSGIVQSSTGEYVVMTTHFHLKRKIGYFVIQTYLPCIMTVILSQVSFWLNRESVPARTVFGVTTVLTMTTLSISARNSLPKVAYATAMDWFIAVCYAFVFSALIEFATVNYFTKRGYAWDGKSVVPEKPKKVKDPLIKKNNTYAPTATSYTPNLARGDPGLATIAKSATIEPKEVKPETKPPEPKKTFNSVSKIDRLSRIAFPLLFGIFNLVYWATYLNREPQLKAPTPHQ
T2 sequence (P47870 25-512 partner limits assumed): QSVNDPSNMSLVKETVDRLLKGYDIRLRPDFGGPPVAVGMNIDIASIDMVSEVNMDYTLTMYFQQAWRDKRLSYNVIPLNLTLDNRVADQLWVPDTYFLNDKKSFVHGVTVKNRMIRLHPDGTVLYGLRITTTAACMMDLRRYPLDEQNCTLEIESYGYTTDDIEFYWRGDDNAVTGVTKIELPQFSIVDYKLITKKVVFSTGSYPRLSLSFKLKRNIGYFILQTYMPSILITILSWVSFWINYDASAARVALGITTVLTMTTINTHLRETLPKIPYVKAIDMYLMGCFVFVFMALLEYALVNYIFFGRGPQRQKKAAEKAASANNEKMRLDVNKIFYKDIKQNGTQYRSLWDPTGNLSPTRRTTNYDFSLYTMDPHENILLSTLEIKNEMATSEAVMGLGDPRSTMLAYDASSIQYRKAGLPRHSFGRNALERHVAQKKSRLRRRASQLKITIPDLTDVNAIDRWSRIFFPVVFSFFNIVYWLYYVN
T2 sequence (P18507 40-475): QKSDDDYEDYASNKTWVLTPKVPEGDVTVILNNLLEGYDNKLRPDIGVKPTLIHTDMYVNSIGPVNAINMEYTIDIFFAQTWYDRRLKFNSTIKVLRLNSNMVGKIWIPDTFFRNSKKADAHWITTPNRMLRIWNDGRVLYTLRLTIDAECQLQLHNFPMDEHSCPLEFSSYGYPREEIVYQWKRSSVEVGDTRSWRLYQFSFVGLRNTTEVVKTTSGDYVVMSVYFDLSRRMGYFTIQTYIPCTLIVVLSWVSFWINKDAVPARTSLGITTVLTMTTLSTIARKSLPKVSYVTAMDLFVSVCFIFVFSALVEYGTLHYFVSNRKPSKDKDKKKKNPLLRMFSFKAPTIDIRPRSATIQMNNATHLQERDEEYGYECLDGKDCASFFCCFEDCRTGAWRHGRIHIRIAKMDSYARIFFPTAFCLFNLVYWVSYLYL
In short: (§1)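 Human GABAA receptors expressed in Xenopus oocytes by cRNA injection (α:β:γ molar ratio ~1:1:10 for α1β2γ2, 1:1:1 for α2β3γ2), recorded 2-10 days later by two-electrode voltage clamp at −60 mV in ND-96, pH 7.5. Modulator preapplied 30 s before GABA at per-oocyte EC10. Peak-current percent potentiation over GABA alone, normalised to diazepam.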

GABAA receptor α2β3γ2 = molecular target: T3, GABAA receptor α2β3γ2 (Homo sapiens, UniProt P18507+P47869); test: Two-electrode voltage-clamp potentiation of GABA EC10 current in Xenopus oocytes, GABAA2; type: cell-based; details: percentage potentiation of GABA EC10 current divided by that of diazepam
T3 construct: expressed in transfected cells; host or cells: Xenopus laevis oocytes injected with cRNA
T3 sequence (P47869 29-451): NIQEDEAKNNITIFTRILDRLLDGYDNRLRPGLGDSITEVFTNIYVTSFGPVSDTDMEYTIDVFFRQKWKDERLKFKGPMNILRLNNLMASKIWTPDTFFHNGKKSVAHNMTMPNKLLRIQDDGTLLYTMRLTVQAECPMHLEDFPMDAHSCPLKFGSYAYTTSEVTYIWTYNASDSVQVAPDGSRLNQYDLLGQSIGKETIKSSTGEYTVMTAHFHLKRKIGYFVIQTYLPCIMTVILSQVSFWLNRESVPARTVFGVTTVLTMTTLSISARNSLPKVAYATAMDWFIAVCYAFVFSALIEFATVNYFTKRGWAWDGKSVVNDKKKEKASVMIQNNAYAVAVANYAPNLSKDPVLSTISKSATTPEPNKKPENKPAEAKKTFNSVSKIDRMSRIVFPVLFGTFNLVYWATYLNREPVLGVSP
T3 sequence (P28472 26-473 partner): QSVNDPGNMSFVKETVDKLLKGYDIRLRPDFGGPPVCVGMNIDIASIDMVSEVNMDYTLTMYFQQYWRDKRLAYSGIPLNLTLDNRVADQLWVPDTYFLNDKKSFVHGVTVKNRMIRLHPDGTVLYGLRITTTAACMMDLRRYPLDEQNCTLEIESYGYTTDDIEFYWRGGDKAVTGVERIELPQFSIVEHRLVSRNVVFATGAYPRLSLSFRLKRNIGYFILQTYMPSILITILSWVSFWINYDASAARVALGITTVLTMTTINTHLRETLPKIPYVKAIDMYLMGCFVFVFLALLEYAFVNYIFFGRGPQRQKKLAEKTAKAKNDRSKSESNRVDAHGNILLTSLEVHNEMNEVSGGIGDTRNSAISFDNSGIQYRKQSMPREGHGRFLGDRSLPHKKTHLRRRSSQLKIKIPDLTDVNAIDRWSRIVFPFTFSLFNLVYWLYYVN
T3 sequence (P18507 40-475): as the sequence (P18507 40-475) above
In short: as §1

[2] = listed as 9-amino-6-fluoro-5-(2-fluoro-6-methoxyphenyl)-2-methyl-2,3-dihydro-1H-pyrrolo[3

T1 sequence (P47869 29-451): as the sequence (P47869 29-451) above
T1 sequence (P28472 26-473 partner): as the sequence (P28472 26-473 partner) above
T1 sequence (P18507 40-475): as the sequence (P18507 40-475) above

SMILES: COc1ccc(OC)c(CN2Cc3nc4c(-c5cnccc5OC)cccc4c(N)c3C2=O)c1 [Example 39, 9-Amino-2-(2,5-dimethoxybenzyl)-5-(4-methoxypyridin-3-yl)-2,3-dihydropyrrolo[3,4-b]quinolin-1-one]
- Ki [1]: 5.11 nM
- Relative Potentiation for GABAA1 (GABAA receptor α1β2γ2): 0.18
- Relative Potentiation for GABAA2 (GABAA receptor α2β3γ2): 0.26

SMILES: COc1ccncc1-c1c(F)ccc2c(N)c3c(nc12)CN(C1CC1)C3=O [Example 41, 9-Amino-2-cyclopropyl-6-fluoro-5-(4-methoxypyridin-3-yl)-2,3-dihydropyrrolo[3,4-b]quinolin-1-one]
- Ki [1]: 2.35 nM
- Relative Potentiation for GABAA1 (GABAA receptor α1β2γ2): 0.13
- Relative Potentiation for GABAA2 (GABAA receptor α2β3γ2): 0.28

SMILES: COc1ncc(-c2c(F)ccc3c(N)c4c(nc23)CN(C2CC2)C4=O)c(OC)n1 [Example 44, 9-Amino-2-cyclopropyl-5-(2,4-dimethoxypyrimidin-5-yl)-6-fluoro-2,3-dihydropyrrolo[3,4-b]quinolin-1-one]
- Ki [1]: 6.64 nM
- Relative Potentiation for GABAA1 (GABAA receptor α1β2γ2): 0.13
- Relative Potentiation for GABAA2 (GABAA receptor α2β3γ2): 0.35

SMILES: CCN1Cc2nc3c(-c4ccccc4OC)c(F)ccc3c(N)c2C1=O [Example 45, 9-Amino-2-ethyl-6-fluoro-5-(2-methoxyphenyl)-2,3-dihydropyrrolo[3,4-b]quinolin-1-one]
- Ki [1]: 13.2 nM
- Relative Potentiation for GABAA1 (GABAA receptor α1β2γ2): −0.11
- Relative Potentiation for GABAA2 (GABAA receptor α2β3γ2): 0.26

SMILES: CCN1Cc2nc3c(-c4cc(F)ccc4OC)c(F)ccc3c(N)c2C1=O [Example 46, 9-Amino-2-ethyl-6-fluoro-5-(5-fluoro-2-methoxyphenyl)-2,3-dihydropyrrolo[3,4-b]quinolin-1-one]
- Ki [1]: 17.3 nM
- Relative Potentiation for GABAA1 (GABAA receptor α1β2γ2): −0.008
- Relative Potentiation for GABAA2 (GABAA receptor α2β3γ2): 0.3

SMILES: CCN1Cc2nc3c(-c4ccc(OC)c(OC)c4)c(F)ccc3c(N)c2C1=O [Example 47, 9-Amino-5-(3,4-dimethoxyphenyl)-2-ethyl-6-fluoro-2,3-dihydropyrrolo[3,4-b]quinolin-1-one]
- Ki [1]: 4.52 nM
- Relative Potentiation for GABAA1 (GABAA receptor α1β2γ2): 0.068
- Relative Potentiation for GABAA2 (GABAA receptor α2β3γ2): 0.27

SMILES: COc1ccc(Cl)cc1-c1cccc2c(N)c3c(nc12)CN(C1CCC1)C3=O [Example 49, 9-Amino-5-(5-chloro-2-methoxyphenyl)-2-cyclobutyl-2,3-dihydropyrrolo[3,4-b]quinolin-1-one]
- Ki [1]: 2.53 nM
- Relative Potentiation for GABAA1 (GABAA receptor α1β2γ2): 0.12
- Relative Potentiation for GABAA2 (GABAA receptor α2β3γ2): 0.58

SMILES: COc1ccc(-c2cccc3c(N)c4c(nc23)CN(C2CCC2)C4=O)c(OC)c1 [Example 53, 9-Amino-2-cyclobutyl-5-(2,4-dimethoxyphenyl)-2,3-dihydropyrrolo[3,4-b]quinolin-1-one]
- Ki [1]: 2.13 nM
- Relative Potentiation for GABAA1 (GABAA receptor α1β2γ2): 0.1
- Relative Potentiation for GABAA2 (GABAA receptor α2β3γ2): 0.24

SMILES: CCCN1Cc2nc3c(-c4c(F)cccc4F)cccc3c(N)c2C1=O [Example 56, 9-Amino-5-(2,6-difluorophenyl)-2-propyl-2,3-dihydro-pyrrolo[3,4-b]quinolin-1-one]
- Ki [1]: 4.98 nM
- Relative Potentiation for GABAA1 (GABAA receptor α1β2γ2): 0.083
- Relative Potentiation for GABAA2 (GABAA receptor α2β3γ2): 0.24

SMILES: CCN1Cc2nc3c(-c4cnccc4OC)cccc3c(N)c2C1=O [Example 57, 9-Amino-2-ethyl-5-(4-methoxypyridin-3-yl)-2,3-dihydropyrrolo[3,4-b]quinolin-1-one]
- Ki [1]: 21.4 nM
- Relative Potentiation for GABAA1 (GABAA receptor α1β2γ2): 0.079
- Relative Potentiation for GABAA2 (GABAA receptor α2β3γ2): 0.26

SMILES: CCN1Cc2nc3c(-c4cccnc4OC)c(F)ccc3c(N)c2C1=O [Example 58, 9-Amino-2-ethyl-6-fluoro-5-(2-methoxypyridin-3-yl)-2,3-dihydropyrrolo[3,4-b]quinolin-1-one]
- Ki [1]: 4.08 nM
- Relative Potentiation for GABAA1 (GABAA receptor α1β2γ2): −0.055
- Relative Potentiation for GABAA2 (GABAA receptor α2β3γ2): 0.28

SMILES: Nc1c2c(nc3c(-c4cc(Cl)ccc4Cl)cccc13)CN(C1CC1)C2=O [Example 59, 9-Amino-2-cyclopropyl-5-(2,5-dichlorophenyl)-2,3-dihydropyrrolo[3,4-b]quinolin-1-one]
- Ki [1]: 11.4 nM
- Relative Potentiation for GABAA1 (GABAA receptor α1β2γ2): 0.094
- Relative Potentiation for GABAA2 (GABAA receptor α2β3γ2): 0.25

SMILES: COc1ccc(F)c(-c2cccc3c(N)c4c(nc23)CN(C2CC2)C4=O)c1 [Example 60, 9-Amino-2-cyclopropyl-5-(2-fluoro-5-methoxyphenyl)-2,3-dihydropyrrolo[3,4-b]quinolin-1-one]
- Ki [1]: 13.8 nM
- Relative Potentiation for GABAA1 (GABAA receptor α1β2γ2): 0.079
- Relative Potentiation for GABAA2 (GABAA receptor α2β3γ2): 0.33

SMILES: COc1ccc(F)cc1-c1c(F)ccc2c(N)c3c(nc12)CN(C1CC1)C3=O [Example 61, 9-Amino-2-cyclopropyl-6-fluoro-5-(5-fluoro-2-methoxyphenyl)-2,3-dihydropyrrolo[3,4-b]quinolin-1-one]
- Ki [1]: 7.4 nM
- Relative Potentiation for GABAA1 (GABAA receptor α1β2γ2): 0.08
- Relative Potentiation for GABAA2 (GABAA receptor α2β3γ2): 0.23

SMILES: COc1ccncc1-c1cccc2c(N)c3c(nc12)CN(C1CCC1)C3=O [Example 62, 9-Amino-2-cyclobutyl-5-(4-methoxypyridin-3-yl)-2,3-dihydropyrrolo[3,4-b]quinolin-1-one]
- Ki [1]: 1.84 nM
- Relative Potentiation for GABAA1 (GABAA receptor α1β2γ2): 0.09
- Relative Potentiation for GABAA2 (GABAA receptor α2β3γ2): 0.44

SMILES: COc1ccccc1-c1cccc2c(N)c3c(nc12)CN(C1CCC1)C3=O [Example 63, 9-Amino-2-cyclobutyl-5-(2-methoxyphenyl)-2,3-dihydropyrrolo[3,4-b]quinolin-1-one]
- Ki [1]: 3.52 nM
- Relative Potentiation for GABAA1 (GABAA receptor α1β2γ2): 0.038
- Relative Potentiation for GABAA2 (GABAA receptor α2β3γ2): 0.25

SMILES: COc1ccc(-c2cccc3c(N)c4c(nc23)CN(C2CCC2)C4=O)c(OC)n1 [Example 64, 9-Amino-2-cyclobutyl-5-(2,6-dimethoxypyridin-3-yl)-2,3-dihydropyrrolo[3,4-b]quinolin-1-one]
- Ki [1]: 3.81 nM
- Relative Potentiation for GABAA1 (GABAA receptor α1β2γ2): 0.06
- Relative Potentiation for GABAA2 (GABAA receptor α2β3γ2): 0.31

SMILES: COc1ccc(CN2Cc3nc4c(-c5c(F)cccc5OC)cccc4c(N)c3C2=O)cc1OC [Example 65, 9-Amino-2-(3,4-dimethoxybenzyl)-5-(2-fluoro-6-methoxyphenyl)-2,3-dihydropyrrolo[3,4-b]quinolin-1-one]
- Ki [1]: 2.68 nM
- Relative Potentiation for GABAA1 (GABAA receptor α1β2γ2): 0.092
- Relative Potentiation for GABAA2 (GABAA receptor α2β3γ2): 0.2

SMILES: COc1ncccc1-c1cccc2c(N)c3c(nc12)CN(C1CC1)C3=O [Example 66, 9-Amino-2-cyclopropyl-5-(2-methoxypyridin-3-yl)-2,3-dihydropyrrolo[3,4-b]quinolin-1-one]
- Ki [1]: 35.1 nM
- Relative Potentiation for GABAA1 (GABAA receptor α1β2γ2): 0.056
- Relative Potentiation for GABAA2 (GABAA receptor α2β3γ2): 0.33

SMILES: COc1cccc(F)c1-c1c(F)ccc2c(N)c3c(nc12)CN(C)C3=O [Example 70, 9-Amino-6-fluoro-5-(2-fluoro-6-methoxyphenyl)-2-methyl-2,3-dihydropyrrolo[3,4-b]quinolin-1-one]
- Ki [1]: 8.11 nM
- Relative Potentiation for GABAA1 (GABAA receptor α1β2γ2; [2]): 0.02
- Relative Potentiation for GABAA2 (GABAA receptor α2β3γ2; [2]): 0.16

SMILES: CCN1Cc2nc3c(-c4cc(OC)ccc4F)cccc3c(N)c2C1=O [Example 72, 9-Amino-2-ethyl-5-(2-fluoro-5-methoxyphenyl)-2,3-dihydropyrrolo[3,4-b]quinolin-1-one]
- Ki [1]: 13.3 nM
- Relative Potentiation for GABAA1 (GABAA receptor α1β2γ2): 0.02
- Relative Potentiation for GABAA2 (GABAA receptor α2β3γ2): 0.12

SMILES: N#Cc1ccccc1-c1cccc2c(N)c3c(nc12)CN(C1CCC1)C3=O [Example 76, 2-(9-Amino-2-cyclobutyl-1-oxo-2,3-dihydro-1H-pyrrolo[3,4-b]quinolin-5-yl)benzonitrile]
- Ki [1]: 0.973 nM
- Relative Potentiation for GABAA1 (GABAA receptor α1β2γ2): −0.036
- Relative Potentiation for GABAA2 (GABAA receptor α2β3γ2): 0.12
